In article PMC8855532 (Journal of the American Chemical Society, 2022):

Biological target: 40-residue Alzheimer’s β-amyloid peptide (Aβ40) fibrils (Homo sapiens, UniProt P05067)
Assay: HPLC titration of free/bound ligand on preformed fibrils
Type: binding

40-residue Alzheimer’s β-amyloid peptide (Aβ40) fibrils, sequence (P05067 672-711): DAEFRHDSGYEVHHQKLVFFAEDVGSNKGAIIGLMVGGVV

Compound: CNc1ccc(-c2nc3ccc(O)cc3s2)cc1F [flutemetamol]
- Kd: 1600 ± 200 nM
